Measurements taken from patent publication US20240189278A1, “NOVEL COMPOUNDS AND METHODS FOR INCREASING KLOTHO GENE EXPRESSION” (Klotho Therapeutics, Inc., priority 2017, published 2024).

Columns and labels:
Klotho gene expression = test: Luciferase reporter assay to evaluate Klotho gene expression changes; format: cell-based; conditions: overnight incubation, luciferase luminescence
Protocol: Table 2. Luciferase Reporter Assay to Evaluate Klotho Gene Expression Changes
HEK293 cells/pKlotho_Luc in suspension (20 μl/well, density 0.25×10^6 cells/ml) were dispensed into assay-ready 384-well tissue culture treated plates (plates (BD BioCoat Poly-D-Lys coated, Cat.354661) preloaded with 1000× stock of test compounds in DMSO (20 nL/well, 10 concentration points, 3× dilutions from 20 uM to 0.001 uM). Growth medium: DMEM, 1% FBS, Pen/Strep, 600 ug/ml G418. Negative control: DMSO. Positive control: 2 uM Compound H from King, et. al. Biochem. J. (2012) 441, 453-461. Cells were incubated in CO2 incubator overnight. At the end of the incubation time, 20 ul/well of the luciferase assay solution (Steady-Luc Firefly HTS Assay Biotium, Cat 30028) were added to the plate and mixed on a VibraTranslator (Union Scientific). Plates were incubated for 5 min at 25° C. Steady glow luminescence signal was read using a BMG Labtech PHERAstar FSX reader.

aged male Wistar rats = test: Aged rat efficacy model, blood pressure by tail-cuff method; format: in vivo
Protocol: The aim of the study was to assess the efficacy of test compound in improving physiologic parameters in aged rats such as blood pressure values. The experiment included daily repeated administrations of the test compound for 14 consecutive days and follow up observations within a […] post-dosing period. Body weight (BWt) were monitored daily during the dosing period and twice a week during the post-dosing period. Blood pressure (BP) was measured on 0, 7th, 14th, 21s t and 28th day of the study. Study design, animal selection, handling and treatment were all in accordance with the CROs efficacy study protocols and Standard Operation Procedure, and the Animal Care Guidelines.
Fifteen aged male Wistar rats (22.5 months old; initial body weights ranged from 474.8 g to 672.4 g with an average body weight across the groups of 540.8 g) were randomized into two groups by body weight and systolic blood pressure: 11 animals distributed to compound 49-treated group and 4 animals—to vehicle-treated group. […]
Blood pressure was measured by the Tail-Cuff Method using the Coda Non-invasive Blood-Pressure System. Individual body weights and relative changes in body weight (compared to the appropriate weight on Day 0) were recorded.

[1] = Homo sapiens, HEK293, HEK293 cells/pKlotho_Luc

| SMILES | Activation, % (Klotho gene expression; HEK293 cells/pKlotho_Luc) [%] | EC50 (Klotho gene expression; [1]) [nM] | EC50 (Klotho gene expression; HEK293 cells/pKlotho_Luc) [nM] | Systolic blood pressure within the treated group during the study (aged male Wistar rats; 50 mg/kg PO daily for 14 days, 28-day study) | Systolic blood pressure, treated group vs vehicle-treated group (aged male Wistar rats; 50 mg/kg PO daily, Day 14) |
| --- | --- | --- | --- | --- | --- |
| N#CCCn1ncc2c(NCCC3=CCCCCC3)ncnc21 [Compound 14] | 122 | 260 | – | – | – |
| C1=C(CCNc2ncnc3sccc23)CCCCC1 [Compound 9] | 81 | 180 | – | – | – |
| Cc1cc2c(NCCC3=CCCCCC3)ncnc2s1 [Compound 18] | 48 | 450 | – | – | – |
| CC(C)(CNc1ncnc2c1ncn2C1CC1)C1=CCCCC1 [Compound 44] | 58 | 23800 | – | – | – |
| C1=C(CCNc2ncnc3[nH]ccc23)CCCCC1 [Compound 2, N-[2-(cyclohept-1-en-1-yl)ethyl]-7H-pyrrolo[2,3-d]pyrimidin-4-amine] | 94 | 70 | – | – | – |
| c1nc(NCC2CCC2)c2ncn(C3CC3)c2n1 [Compound 36] | 68 | 830 | – | – | – |
| C1=C(CCNc2ncnc3sccc23)CCCC1 [Compound 23] | 133 | 850 | – | – | – |
| Cc1cc2c(NCCC3=CCCCC3)ncnc2s1 [Compound 21] | 133 | 680 | – | – | – |
| Clc1cccc(CNc2ncnc3c2ncn3C2CC2)c1 [Compound 34] | 102 | 2000 | – | – | – |
| c1nc(NCCC2CCCCC2)c2ncn(C3CC3)c2n1 [Compound 31] | 109 | 1100 | – | – | – |
| Fc1ccccc1-n1ncc2c(NCCC3=CCCCC3)ncnc21 [Compound 4] | 105 | 120 | – | – | – |
| Fc1cccc2ncnc(NCCC3=CCCCC3)c12 [Compound 13] | 86 | 250 | – | – | – |
| C1=CCC(CNc2ncnc3c2ncn3C2CC2)CC1 (stereo not drawn) [Compound 1, N-[(cyclohex-3-en-1-yl)methyl]-9-cyclopropyl-9H-purin-6-amine] | 149 | 60 | – | – | – |
| Fc1ccccc1-n1ncc2c(NCCC3=CCCCCC3)ncnc21 [Compound 5] | 61 | 120 | – | – | – |
| CC1(CNc2ncnc3c2ncn3C2CC2)CCCC1 [Compound 40] | 89 | 2900 | – | – | – |
| C1=C(CCNc2ncnc3c2cnn3-c2ccccc2)CCCCC1 [Compound 22] | 96 | 770 | – | – | – |
| C1=C(CCNc2ncnc3c2ncn3C2CC2)CCCC1 [Compound 37] | 103 | 70 | – | – | – |
| C1=C(CCNc2ncnc3scnc23)CCCCC1 [Compound 27] | 101 | 920 | – | – | – |
| CCn1ncc2c(NCCC3=CCCCC3)ncnc21 [Compound 16] | 151 | 370 | – | – | – |
| c1nc(NCCC2CCCC2)c2ncn(C3CC3)c2n1 [Compound 30] | 87 | 1200 | – | – | – |
| FC1(CNc2ncnc3c2ncn3C2CC2)CCCCC1 [Compound 47] | 86 | 900 | – | – | – |
| Cc1csc2ncnc(NCCC3=CCCCC3)c12 [Compound 8] | 145 | 160 | – | – | – |
| c1ccc([C@@H]2C[C@H]2Nc2ncnc3c2ncn3C2CC2)cc1 [Compound 41] | – | > 30000 | – | – | – |
| C1=CC[C@@H](CNc2ncnc3c2ncn3C2CC2)CC1 [Compound 48] | 86 | 160 | – | – | – |

| SMILES | Activation, % (Klotho gene expression; HEK293 cells/pKlotho_Luc) [%] | EC50 (Klotho gene expression; [1]) [nM] | EC50 (Klotho gene expression; HEK293 cells/pKlotho_Luc) [nM] | Systolic blood pressure within the treated group during the study (aged male Wistar rats; 50 mg/kg PO daily for 14 days, 28-day study) | Systolic blood pressure, treated group vs vehicle-treated group (aged male Wistar rats; 50 mg/kg PO daily, Day 14) |
| --- | --- | --- | --- | --- | --- |
| Nc1c(NCCC2=CCCCC2)ncnc1-n1cccn1 [Compound 11] | 125 | 210 | – | – | – |
| C1=C(CCNc2ncnc3[nH]ccc23)CCCC1 [Compound 7] | 150 | 160 | – | – | – |
| C1=C(CCNc2cc(N3CCCCC3)ncn2)CCCC1 [Compound 6] | 98 | 140 | – | – | – |
| CC1(C)CCC(CNc2ncnc3c2ncn3C2CC2)CC1 [Compound 45] | 59 | 13100 | – | – | – |
| c1nc(NCC23CCC(CC2)CC3)c2ncn(C3CC3)c2n1 [Compound 46] | 86 | 1700 | – | – | – |
| C1=CC[C@@H](CNc2ncnc3c2ncn3C2CC2)CC1 [Compound 49] | 90 | – | 100 | considerable decrease | Significant difference |
| CC1(CNc2ncnc3c2ncn3C2CC2)CCCCC1 [Compound 39] | 77 | 3600 | – | – | – |
| C1=C(CCNc2cc(N3CCCC3)ncn2)CCCC1 [Compound 3] | 138 | 100 | – | – | – |
| CCn1ncc2c(NCCC3CC=CCC3)ncnc21 (stereo not drawn) [Compound 26] | 121 | 920 | – | – | – |
| CCC1(CC)CCCN(c2ncnc3c2ncn3C2CC2)CC1 [Compound 28] | 101 | 1000 | – | – | – |
| CN(CCC1CCCCC1)c1ncnc2c1ncn2C1CC1 [Compound 17] | 114 | 380 | – | – | – |
| C1=C(CCNc2ncnc3c2ncn3C2CC2)CCCCC1 [Compound 38] | 105 | 340 | – | – | – |
| C1=C(CCNc2ncnc3c2ncn3C2CC2)CCC1 [Compound 42] | 79 | 620 | – | – | – |
| C1=C(CCNc2ncnc3ccsc23)CCCCC1 [Compound 24] | 122 | 880 | – | – | – |
| CC(C)CNc1ncnc2c1ncn2C1CC1 [Compound 35] | 40 | 1500 | – | – | – |
| Cc1csc2ncnc(NCCC3=CCCCCC3)c12 [Compound 12] | 98 | 210 | – | – | – |
| CC(C)CCNc1ncnc2c1ncn2C1CC1 [Compound 32] | 77 | 730 | – | – | – |
| c1nc(NCC2CCCCC2)c2ncn(C3CC3)c2n1 [Compound 33] | 89 | 380 | – | – | – |
| Clc1ccc(CNc2ncnc3c2ncn3C2CC2)cc1Cl [Compound 43] | – | > 30000 | – | – | – |
| C1=C(CCNc2ncnc3scnc23)CCCC1 [Compound 29] | 103 | 1100 | – | – | – |
| C1=C(CCNc2ncnc3c2cnn3-c2ccccc2)CCCC1 [Compound 15] | 203 | 270 | – | – | – |
| Nc1c(NCCC2=CCCCCC2)ncnc1-n1cccn1 [Compound 10] | 98 | 200 | – | – | – |
| C1=CCC(CCNc2ncnc3c2ncn3C2CC2)CC1 (stereo not drawn) [Compound 19] | 152 | 500 | – | – | – |
| N#CCCn1ncc2c(NCCC3=CCCCC3)ncnc21 [Compound 20] | 120 | 600 | – | – | – |
